Patent US20220192984A1, “PHARMACEUTICAL COMPOSITIONS COMPRISING OTIC THERAPEUTIC AGENTS AND RELATED METHODS” (Frequency Therapeutics, Inc., priority 2018, published 2022)
Where a name gives a salt, the structure may show the parent alone. Read-outs that look alike come from different tables or passages of the source.

Experiments:
[1] = cited from earlier work
[2] = Human In Vivo Conc listed for agents
[3] = Perilymph Conc. listed for agents (Tables 14-25)
EZH2 [4] = molecular target: T1, EZH2 (Homo sapiens, UniProt Q15910); conditions: Table 19, EZH2; read-out: pKi or IC50 (converted); cited from earlier work
EZH2 [5] = molecular target: T1, EZH2; conditions: Table 19; cited from earlier work
DOT1L [6] = molecular target: T2, DOT1L (Homo sapiens, UniProt Q8TEK3); conditions: Table 20; cited from earlier work
KDM [7] = conditions: Table 21; cited from earlier work
Lgr5+ cells = test: Lgr5+ Assay (Lgr5+ cell assay in vitro); format: cell-based
KDM [8] = conditions: cited from earlier work
EZH-1 = EZH-1 (Homo sapiens, UniProt Q92800); conditions: Table 19; read-out: Select vs EZH-1; cited from earlier work
TAZ = conditions: Table 22; cited from earlier work
HDAC = conditions: Mechanism HDAC Inhib 1, 2, 3, 8; cited from earlier work
MAO B = molecular target: T3, MAO B (Homo sapiens, UniProt P27338); conditions: Table 18, MAO B (second value or marked B); read-out: Select MAOs A and B; cited from earlier work
T3 sequence (P27338 1-520): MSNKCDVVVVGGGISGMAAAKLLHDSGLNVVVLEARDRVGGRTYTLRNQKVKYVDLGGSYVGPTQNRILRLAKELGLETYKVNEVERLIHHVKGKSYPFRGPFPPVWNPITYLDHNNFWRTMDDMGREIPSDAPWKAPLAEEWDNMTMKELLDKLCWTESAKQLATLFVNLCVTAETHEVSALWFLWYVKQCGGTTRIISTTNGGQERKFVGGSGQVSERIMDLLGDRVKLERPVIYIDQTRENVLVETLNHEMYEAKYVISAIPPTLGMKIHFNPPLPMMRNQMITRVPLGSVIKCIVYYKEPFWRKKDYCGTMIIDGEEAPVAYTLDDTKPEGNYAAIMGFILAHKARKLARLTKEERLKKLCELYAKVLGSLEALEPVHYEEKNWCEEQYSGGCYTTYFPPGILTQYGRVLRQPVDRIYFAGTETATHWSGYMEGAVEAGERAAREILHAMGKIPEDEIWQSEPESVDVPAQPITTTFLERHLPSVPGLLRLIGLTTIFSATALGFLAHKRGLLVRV

MAO A = molecular target: T4, MAO A (Homo sapiens, UniProt P21397); conditions: Table 18, MAO A (first value or marked A); read-out: Select MAOs A and B; cited from earlier work
T4 sequence (P21397 1-527): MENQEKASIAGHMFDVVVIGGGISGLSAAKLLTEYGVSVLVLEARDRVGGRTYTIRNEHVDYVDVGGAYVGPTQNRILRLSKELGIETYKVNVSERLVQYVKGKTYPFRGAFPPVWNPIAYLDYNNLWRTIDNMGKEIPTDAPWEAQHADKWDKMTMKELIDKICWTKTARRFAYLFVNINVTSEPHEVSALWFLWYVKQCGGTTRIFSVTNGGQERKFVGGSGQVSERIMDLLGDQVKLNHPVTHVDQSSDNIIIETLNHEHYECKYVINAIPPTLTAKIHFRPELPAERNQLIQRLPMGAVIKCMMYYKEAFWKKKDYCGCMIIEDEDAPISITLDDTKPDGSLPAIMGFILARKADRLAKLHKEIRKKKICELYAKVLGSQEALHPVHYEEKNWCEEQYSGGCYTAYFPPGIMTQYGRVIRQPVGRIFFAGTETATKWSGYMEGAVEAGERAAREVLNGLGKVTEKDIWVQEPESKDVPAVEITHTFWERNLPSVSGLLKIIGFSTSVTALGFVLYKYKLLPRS

LSD1 [9] = molecular target: T5, LSD1 (Homo sapiens, UniProt O60341); conditions: Table 18; cited from earlier work
LSD1 [10] = molecular target: T5, LSD1; conditions: Table 18, LSD1; read-out: pKi or IC50 (converted); cited from earlier work
GSK-3 alpha = GSK-3 alpha (Homo sapiens, UniProt P49840); conditions: cited from earlier work
DOT1L [11] = molecular target: T2, DOT1L; conditions: Table 20; read-out: pKi or IC50 (converted); cited from earlier work
[12] = Table 20, listed concentration, no test described
[13] = Table 21, KDM 4, read-out: Select KDM 4
[14] = Table 22, listed concentration, no test described
[15] = HDAC inhibitor table, upper end of the wrapped range 100 uM-4 mM
[16] = HDAC inhibitor table, upper end of the wrapped range 100 uM-4 mM, no test described
[17] = Table 14, listed concentration, no test described

T2 sequence (Q8TEK3 whole entry, species assumed): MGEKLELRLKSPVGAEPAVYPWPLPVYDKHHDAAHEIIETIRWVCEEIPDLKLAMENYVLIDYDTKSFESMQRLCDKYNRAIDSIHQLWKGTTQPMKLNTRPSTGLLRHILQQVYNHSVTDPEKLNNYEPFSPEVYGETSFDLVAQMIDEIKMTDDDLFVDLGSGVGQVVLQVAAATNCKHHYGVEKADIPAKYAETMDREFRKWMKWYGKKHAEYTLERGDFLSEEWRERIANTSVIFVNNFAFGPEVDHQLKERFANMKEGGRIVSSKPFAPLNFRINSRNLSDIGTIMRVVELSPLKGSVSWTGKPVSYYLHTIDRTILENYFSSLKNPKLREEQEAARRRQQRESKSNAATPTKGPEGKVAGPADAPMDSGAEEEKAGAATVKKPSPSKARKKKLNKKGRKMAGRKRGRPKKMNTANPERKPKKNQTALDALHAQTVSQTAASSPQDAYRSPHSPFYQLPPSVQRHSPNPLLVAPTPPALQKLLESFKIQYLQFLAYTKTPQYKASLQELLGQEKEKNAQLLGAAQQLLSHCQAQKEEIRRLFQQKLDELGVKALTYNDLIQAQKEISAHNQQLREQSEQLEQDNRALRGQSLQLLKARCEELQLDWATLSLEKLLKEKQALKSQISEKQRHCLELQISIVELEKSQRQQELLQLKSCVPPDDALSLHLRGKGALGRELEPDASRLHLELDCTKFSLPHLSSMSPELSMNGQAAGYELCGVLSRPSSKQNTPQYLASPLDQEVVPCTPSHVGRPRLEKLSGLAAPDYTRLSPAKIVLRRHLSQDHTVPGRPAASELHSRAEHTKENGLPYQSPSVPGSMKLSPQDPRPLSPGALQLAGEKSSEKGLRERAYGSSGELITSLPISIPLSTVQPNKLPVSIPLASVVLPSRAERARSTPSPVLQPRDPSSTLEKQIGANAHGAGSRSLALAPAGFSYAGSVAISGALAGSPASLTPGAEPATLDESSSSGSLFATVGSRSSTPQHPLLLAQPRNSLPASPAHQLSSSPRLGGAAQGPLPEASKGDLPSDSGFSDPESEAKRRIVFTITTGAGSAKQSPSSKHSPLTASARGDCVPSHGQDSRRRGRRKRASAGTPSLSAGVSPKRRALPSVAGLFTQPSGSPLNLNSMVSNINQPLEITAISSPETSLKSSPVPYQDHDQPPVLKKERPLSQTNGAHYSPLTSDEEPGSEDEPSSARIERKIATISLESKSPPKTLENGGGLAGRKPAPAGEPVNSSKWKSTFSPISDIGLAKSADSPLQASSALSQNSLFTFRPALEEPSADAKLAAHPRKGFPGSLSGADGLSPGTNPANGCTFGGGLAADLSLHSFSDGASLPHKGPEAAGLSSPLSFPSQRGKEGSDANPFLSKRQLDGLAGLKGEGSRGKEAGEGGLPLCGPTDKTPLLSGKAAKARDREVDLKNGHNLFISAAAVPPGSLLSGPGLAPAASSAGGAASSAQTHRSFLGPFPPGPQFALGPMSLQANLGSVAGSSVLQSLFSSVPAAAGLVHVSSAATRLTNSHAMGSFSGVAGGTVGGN
T1 sequence (Q15910 whole entry, species assumed): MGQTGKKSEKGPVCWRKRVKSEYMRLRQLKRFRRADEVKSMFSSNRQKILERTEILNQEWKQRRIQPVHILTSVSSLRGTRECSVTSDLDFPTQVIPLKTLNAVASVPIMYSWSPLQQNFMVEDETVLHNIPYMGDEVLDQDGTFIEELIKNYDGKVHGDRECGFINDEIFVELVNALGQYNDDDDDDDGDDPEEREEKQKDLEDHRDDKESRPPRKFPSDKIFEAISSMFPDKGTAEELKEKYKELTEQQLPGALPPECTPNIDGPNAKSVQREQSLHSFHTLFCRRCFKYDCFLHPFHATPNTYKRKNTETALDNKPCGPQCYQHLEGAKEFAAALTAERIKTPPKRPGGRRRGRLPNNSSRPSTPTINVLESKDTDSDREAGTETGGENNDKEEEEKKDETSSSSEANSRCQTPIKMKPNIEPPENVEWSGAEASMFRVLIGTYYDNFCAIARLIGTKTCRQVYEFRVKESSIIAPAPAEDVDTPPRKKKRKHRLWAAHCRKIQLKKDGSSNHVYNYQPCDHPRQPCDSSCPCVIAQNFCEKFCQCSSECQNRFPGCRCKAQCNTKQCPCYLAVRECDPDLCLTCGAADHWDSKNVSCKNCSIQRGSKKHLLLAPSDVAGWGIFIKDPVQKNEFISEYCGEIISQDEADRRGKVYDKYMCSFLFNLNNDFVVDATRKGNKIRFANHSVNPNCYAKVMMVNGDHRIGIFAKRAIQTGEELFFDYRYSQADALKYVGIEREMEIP
T1 sequence (O75530 whole entry partner, species assumed): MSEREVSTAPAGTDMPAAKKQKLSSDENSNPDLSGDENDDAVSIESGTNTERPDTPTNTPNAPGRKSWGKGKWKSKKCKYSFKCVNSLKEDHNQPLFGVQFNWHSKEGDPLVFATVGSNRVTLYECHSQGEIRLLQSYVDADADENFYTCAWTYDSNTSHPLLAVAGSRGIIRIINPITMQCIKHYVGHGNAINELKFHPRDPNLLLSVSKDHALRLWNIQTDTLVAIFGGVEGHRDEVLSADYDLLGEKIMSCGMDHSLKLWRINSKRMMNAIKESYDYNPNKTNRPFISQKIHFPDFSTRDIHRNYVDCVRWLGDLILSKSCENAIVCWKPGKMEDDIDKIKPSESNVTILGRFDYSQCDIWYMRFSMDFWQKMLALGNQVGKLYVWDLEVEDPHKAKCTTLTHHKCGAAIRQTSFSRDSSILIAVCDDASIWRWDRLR
T1 sequence (Q15022 whole entry partner, species assumed): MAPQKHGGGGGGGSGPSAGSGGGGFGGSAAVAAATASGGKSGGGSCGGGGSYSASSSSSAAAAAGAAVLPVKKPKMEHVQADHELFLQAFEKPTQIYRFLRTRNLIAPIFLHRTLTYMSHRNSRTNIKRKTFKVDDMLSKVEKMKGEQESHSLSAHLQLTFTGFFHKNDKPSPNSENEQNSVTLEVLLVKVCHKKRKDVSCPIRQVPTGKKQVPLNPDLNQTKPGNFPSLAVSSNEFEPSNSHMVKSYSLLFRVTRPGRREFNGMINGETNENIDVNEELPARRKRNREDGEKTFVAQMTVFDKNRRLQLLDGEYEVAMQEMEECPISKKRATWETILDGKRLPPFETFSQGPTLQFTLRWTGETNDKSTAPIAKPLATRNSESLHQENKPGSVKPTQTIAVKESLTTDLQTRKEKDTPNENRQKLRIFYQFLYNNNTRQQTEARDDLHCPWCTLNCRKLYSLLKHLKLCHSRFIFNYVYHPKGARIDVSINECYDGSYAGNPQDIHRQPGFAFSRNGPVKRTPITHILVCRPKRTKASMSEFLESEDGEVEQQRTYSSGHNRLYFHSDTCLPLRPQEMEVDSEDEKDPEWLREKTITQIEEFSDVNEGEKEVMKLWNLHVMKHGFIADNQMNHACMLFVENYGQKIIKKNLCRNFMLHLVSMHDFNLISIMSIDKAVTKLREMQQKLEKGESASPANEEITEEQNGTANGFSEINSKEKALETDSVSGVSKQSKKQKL
Sequence of EZH-1 (Q92800 whole entry, species assumed): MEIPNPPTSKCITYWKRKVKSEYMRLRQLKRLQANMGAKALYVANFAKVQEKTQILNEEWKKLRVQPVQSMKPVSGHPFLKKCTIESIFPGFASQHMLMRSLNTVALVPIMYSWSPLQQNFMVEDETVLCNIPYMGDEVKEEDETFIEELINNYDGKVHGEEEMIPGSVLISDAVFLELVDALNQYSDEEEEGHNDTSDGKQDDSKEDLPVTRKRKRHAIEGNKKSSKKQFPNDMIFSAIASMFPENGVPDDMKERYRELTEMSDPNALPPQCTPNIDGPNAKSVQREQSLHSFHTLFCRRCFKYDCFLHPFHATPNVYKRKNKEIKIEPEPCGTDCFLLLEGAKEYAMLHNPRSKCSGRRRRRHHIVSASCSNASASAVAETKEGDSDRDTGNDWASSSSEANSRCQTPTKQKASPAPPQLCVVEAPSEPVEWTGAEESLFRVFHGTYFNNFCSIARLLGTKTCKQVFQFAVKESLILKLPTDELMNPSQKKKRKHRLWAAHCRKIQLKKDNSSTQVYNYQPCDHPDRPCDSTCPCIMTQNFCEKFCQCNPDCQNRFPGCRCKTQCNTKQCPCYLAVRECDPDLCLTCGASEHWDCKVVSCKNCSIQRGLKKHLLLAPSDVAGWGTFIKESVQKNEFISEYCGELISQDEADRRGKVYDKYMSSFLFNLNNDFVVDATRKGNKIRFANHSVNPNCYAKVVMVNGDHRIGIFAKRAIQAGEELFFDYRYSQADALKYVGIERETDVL
Sequence of EZH-1 (O75530 whole entry partner, species assumed): as the sequence (O75530 whole entry partner, species assumed) above
Sequence of EZH-1 (Q15022 whole entry partner, species assumed): as the sequence (Q15022 whole entry partner, species assumed) above
Sequence of GSK-3 alpha (P49840 whole entry): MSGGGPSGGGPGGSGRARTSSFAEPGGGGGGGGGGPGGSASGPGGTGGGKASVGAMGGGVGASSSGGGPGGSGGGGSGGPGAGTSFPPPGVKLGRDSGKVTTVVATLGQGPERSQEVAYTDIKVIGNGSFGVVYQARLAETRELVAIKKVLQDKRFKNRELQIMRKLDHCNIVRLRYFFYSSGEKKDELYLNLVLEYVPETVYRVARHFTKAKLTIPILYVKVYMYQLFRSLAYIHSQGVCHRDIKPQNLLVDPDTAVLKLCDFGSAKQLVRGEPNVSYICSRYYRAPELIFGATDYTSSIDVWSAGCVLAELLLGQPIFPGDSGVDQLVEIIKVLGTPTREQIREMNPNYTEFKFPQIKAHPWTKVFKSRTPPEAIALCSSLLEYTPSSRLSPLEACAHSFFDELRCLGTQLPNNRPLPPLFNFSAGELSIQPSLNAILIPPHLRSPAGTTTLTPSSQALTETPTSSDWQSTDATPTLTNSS

For `CCN(c1cc(-c2ccc(CN3CCOCC3)cc2)cc(C(=O)NCc2c(C)cc(C)[nH]c2=O)c1C)C1CCOCC1` [Tazemetostat], the “Human In Vivo Conc” value ([1]; Table 19) is listed as 100 to 800 ng/mL, the “Human In Vivo Conc” value ([2]; Table 19, value in brackets, converted) is listed as “(200-1600 nM)” and the “Perilymph Conc” value ([3]; Table 19) is listed as 0.37 to 1.1 µM.

For `N#Cc1c2c(c3nncn3c1NCc1ccco1)CN(Cc1ccccc1)CC2` [EED162], the IC50 (EZH2 [4]) is given as 30 nM and the “Lit Cell Poten” value (EZH2 [5]) is given as 80 nM.

In the case of `CC(C)N(CCCNC(=O)Nc1ccc(C(C)(C)C)cc1)C[C@H]1O[C@@H](n2cc(Br)c3c(N)ncnc32)[C@H](O)[C@@H]1O` [SGC0946], the “Human In Vivo Conc” value ([2]; Table 20) is given as 0.1 to 5 µM, the “Lit Cell” value (DOT1L [6]) is given as 10 nM and the “Perilymph Conc” value [3, 12] is given as 0.6 to 5 µM.

For `O=C(O)CCN(O)C(=O)CCCCCCCCC1CC1` [TC-E5002], the “Human In Vivo Conc” value ([1]; Table 21) is listed as 0.12 to 10 µM, the “Lit Cell” value (KDM [7]) is listed as 1640 µM and the “Lgr5+ Assay” value (Lgr5+ cells; Table 21) is listed as 0.12 to 10 µM. The “Perilymph Conc” value ([3]; Table 21) was 0.12 to 10 µM, the IC50 (KDM [8]; [13]) was 83000 nM and the IC50 (KDM [8]; Table 21, KDM 5, read-out: Select KDM 5) was 55000 nM. For the same compound, the IC50 (KDM [8]; Table 21, KDM 6, read-out: Select KDM 6) was > 100000 nM.

For `CC(C)c1c(-c2ccccc2)[nH]c2c(C#N)cnn2c1=O` [CPI-455], the “Lit Cell” value (KDM [7]) is given as 0.09 µM and the IC50 (KDM [8]; [13]) is given as 41 nM.

For `CC(C)N(CCCNC(=O)Nc1ccc(C(C)(C)C)cc1)C[C@H]1O[C@@H](n2ccc3c(N)ncnc32)[C@H](O)[C@@H]1O` [EPZ004777], the “Human In Vivo Conc” value ([2]; Table 20) was 0.1 to 45 µM, the “Lgr5+ Assay” value (Lgr5+ cells; Table 20) was 0.6 to 45 µM and the “Perilymph Conc” value [3, 12] was 0.6 to 45 µM.

In the case of `COc1cc(C)[nH]c(=O)c1CN1CCc2c(Cl)cc([C@H](OC)C3COC3)c(Cl)c2C1=O` [PF-06821497], the IC50 (EZH2 [4]) is listed as < 1 nM, the “Human In Vivo Conc” value ([1]; Table 19) is listed as 0.005 to 0.05 µM and the IC50 (EZH-1) is listed as 70 nM. The “Lit Cell Poten” value (EZH2 [5]) was 4 to 6 nM and the “Perilymph Conc” value ([3]; Table 19) was 0.001 to 0.1 µM.

In the case of `CCCCc1nc2cc(-c3cccnc3)c(C)nc2n1Cc1ccc(-c2ccccc2-c2nn[nH]n2)cc1` [TM-25659], the “Lgr5+ Assay” value (Lgr5+ cells; Table 22) is given as 10 to 100 µM, the “Lit Cell” value (TAZ) is given as 10 to 100 µM and the “Perilymph Conc” value [3, 14] is given as 10 to 100 µM.

For `C#CCC(CCCCCC)C(=O)O` (centres unmarked) [2-hexyl-4-pentynoic acid], the “HDAC Potenc” value (HDAC) is listed as 13 µM, the “Lgr5+ Assay” value (Lgr5+ cells; [15]) is listed as ≤ 4000 µM and the “Perilymph Conc” value [3, 16] is listed as ≤ 4000 µM.

In the case of `Cc1cc(C)c(CNC(=O)c2cc(-c3ccc(N4CCN(C)CC4)nc3)cc3c2cnn3C(C)C)c(=O)[nH]1` [GSK926], the IC50 (EZH2 [4]) is given as 7.9 nM and the “Lit Cell Poten” value (EZH2 [5]) is given as 324 nM.

In the case of `Cn1cc(C(=O)Nc2ccc([C@@H]3C[C@H]3NCC3CC3)cc2)cn1` [Compound T-3775440], the IC50 (MAO B) is given as 17000 nM and the IC50 (MAO A) is given as 110000 nM.

In the case of `Cc1ccc(-c2ncc(OC[C@@H]3CCNC3)cc2-c2ccc(C#N)cc2)cc1` [GSK-354], the “Literat. Cell” value (LSD1 [9]) is listed as 1300 nM, the IC50 (MAO B) is listed as 19000 nM and the IC50 (LSD1 [10]) is listed as 29 to 80 nM.

For `CC(C)N(C[C@H]1O[C@@H](n2cnc3c(N)ncnc32)[C@H](O)[C@@H]1O)[C@H]1C[C@@H](CCc2nc3cc(C(C)(C)C)ccc3[nH]2)C1` [Pinometostat (EPZ-5676)], the “Human In Vivo Conc” value ([2]; Table 20) is given as “(1-10 uM”, the “Lit Cell” value (DOT1L [6]) is given as 2.7 nM and the “Perilymph Conc” value [3, 12] is given as 0.1 to 10 µM.

For `N#Cc1ccc2[nH]c(O)c(-c3ccc(CN4CCOCC4)cn3)c2c1` [AZD 1080], the GSK-3 alpha (GSK-3 alpha) is listed as 6.9 nM and the “Perilymph Conc” value [3, 17] is listed as 1 to 5 µM.

For `C=CCNc1nc(N)c(C(=O)c2ccc(F)s2)s1` [TT10], the “Lgr5+ Assay” value (Lgr5+ cells; Table 22) is listed as 1 to 10 µM, the “Lit Cell” value (TAZ) is listed as 1 µM and the “Perilymph Conc” value [3, 14] is listed as 1 to 10 µM.

In the case of `Cc1ccc(C(=O)Nc2c[nH]nc2C(=O)NCCCOC(C)C)cn1` [GSK XXII], the GSK-3 alpha (GSK-3 alpha) is given as 2.3 nM, the “Lgr5+ Assay” value (Lgr5+ cells; Table 14) is given as 0.2 to 1 µM and the “Perilymph Conc” value [3, 17] is given as 0.2 to 1 µM.

In the case of `N[C@H]1CC[C@H](N[C@@H]2C[C@H]2c2ccccc2)CC1` (relative stereo) [ORY-1001], the “Literat. Cell” value (LSD1 [9]) is given as 0.5 to 3 nM and the IC50 (MAO A) is given as > 100000 nM.

For `O=C(O)CCNc1cc(N2CCc3ccccc3CC2)nc(-c2ccccn2)n1` [GSK-J1], the “Lit Cell” value (KDM [7]) is given as 50 µM.

For `NNCCc1ccccc1` [Phenelzine sulfate], the “Literat. Cell” value (LSD1 [9]) is given as 900 nM and the Cmax ([2]; human, plasma, Table 18, value in brackets, converted) is given as 73 to 440 nM.

In the case of `O=C(O)CCCc1ccccc1` [Na phenylbutyrate], the “HDAC Potenc” value (HDAC) is listed as 9 to 16 µM, the “Lgr5+ Assay” value (Lgr5+ cells; [15]) is listed as ≤ 4000 µM and the “Perilymph Conc” value [3, 16] is listed as ≤ 4000 µM.

In the case of `Cc1ncccc1-c1c(Cl)sc2ccc(NC(=O)NCC(=O)NCCCN(C)[C@@H]3CCCN(c4ncnc5[nH]ccc45)C3)cc12` [Compound 7], the IC50 (DOT1L [11]) is listed as < 1 nM.

For CPI-169, the “Human In Vivo Conc” value ([1]; Table 19) is listed as 1 to 10 µM, the IC50 (EZH-1) is listed as 6 nM and the “Perilymph Conc” value ([3]; Table 19) is listed as 1 to 10 µM.

In the case of `CNc1ccnc(Nc2ccc3cc(C)n(-c4ccccc4Oc4cnc5c(c4)ncn5C)c3c2)n1` [Compound 13], the IC50 (DOT1L [11]) is listed as 0.4 nM.

For `CCCc1cc(C)[nH]c(=O)c1CNC(=O)c1cc(-c2ccc(N3CCN(C(C)C)CC3)nc2)cc2c1cnn2C(C)C` [UNCI 999], the IC50 (EZH2 [4]) is listed as 10 nM, the “Lgr5+ Assay” value (Lgr5+ cells; Table 19, result in words) is listed as “Activity” and the “Lit Cell Poten” value (EZH2 [5]) is listed as 124 nM.
